The results in this text go back to USRE47221E1, “Tricyclic compounds” (AbbVie Inc., priority 2009, dated 2019).

One may read the IC50 as the concentration that gives 50% inhibition. A higher IC50 goes with weaker potency.

For this test, the target named is T1, Jak3 (Homo sapiens, UniProt P52333).
T1 construct: Jak3 enzyme (aa 811-1103); expressed in SF9 cells as a GST fusion; GST; made in house; host or cells: SF9 insect cells
T1 sequence (P52333 811-1103): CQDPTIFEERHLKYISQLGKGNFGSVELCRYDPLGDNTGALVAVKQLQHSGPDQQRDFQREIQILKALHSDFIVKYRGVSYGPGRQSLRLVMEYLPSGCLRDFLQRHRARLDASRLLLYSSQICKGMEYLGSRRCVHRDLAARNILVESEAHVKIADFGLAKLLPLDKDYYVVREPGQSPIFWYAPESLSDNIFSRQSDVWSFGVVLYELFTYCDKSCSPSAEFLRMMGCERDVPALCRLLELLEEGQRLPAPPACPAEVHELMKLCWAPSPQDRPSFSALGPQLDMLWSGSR
The experiment in a line: Jak3 enzyme data for selected compounds. It is filed as biochemical.
In turn, `O=C(N1CCC[C@@H](c2cnc3cnc4[nH]ccc4n23)C1)N1CC(F)(F)C1` (single isomer, unassigned) [AA.1.6, (3-(3H-imidazo[1,2-a]pyrrolo[2,3-e]pyrazin-8-yl)piperidin-1-yl)(3,3-difluoroazetidin-1-yl)methanone] returned a concentration for half-maximal inhibition (IC50) of less than 100 nM.

The compound `C[C@@H]1CCN(C(=O)N2CC[C@H](C#N)C2)C[C@@H]1c1ncc2cnc3[nH]ccc3n12` (racemic) [J.2.1] registered an IC50 of less than 100 nM.

Consider `C[C@@H]1CCN(C(=O)N2CCC[C@@H]2CO)C[C@@H]1c1ncc2cnc3[nH]ccc3n12` [J.2.9], for which the 50% inhibitory concentration (IC50) is less than 100 nM.

Take `c1cc2c3c(cnc2[nH]1)CCCN3C1CCCCC1` [Example #28, 1-cyclohexyl-2,3,4,7-tetrahydro-1H-pyrrolo[2,3-h][1,6]naphthyridine]: the 50% inhibitory concentration (IC50) is more than 1000 nM.

As to `CC[C@@H]1C[C@H](NS(=O)(=O)N2CC(F)(F)C2)C[C@@H]1c1cnc2cnc3[nH]ccc3n12` (single isomer, unassigned) [AA.1.79, N-(3-ethyl-4-(3H-imidazo[1,2-a]pyrrolo[2,3-e]pyrazin-8-yl)cyclopentyl)-3,3-difluoroazetidine-1-sulfonamide], the IC50 was less than 100 nM.

In turn, `C[C@@H]1C[C@H](NS(=O)(=O)C2CC2)CN1c1ncc2cnc3[nH]ccc3n12` [D.1.47] displayed an IC50 of 100 to 1000 nM.

Consider `CC[C@H]1C[C@@H](COc2cnc(C#N)cn2)C[C@H]1c1nnc2cnc3[nH]ccc3n12` (single isomer, unassigned) [AA.1.42, 5-((cis-3-ethyl-4-(6H-pyrrolo[2,3-e][1,2,4]triazolo[4,3-a]pyrazin-1-yl)cyclopentyl)methoxy)-pyrazine-2-carbonitrile], for which the IC50 is more than 1000 nM.

Compound `CC[C@@H]1C[C@@H](Oc2ccc(C#N)cn2)C[C@@H]1c1nnc2cnc3[nH]ccc3n12` (racemic) [D.2.22] gave an IC50 of 100 to 1000 nM.

`CCCCC1(S(=O)(=O)N[C@H]2C[C@@H](CC)[C@@H](c3nnc4cnc5[nH]ccc5n34)C2)CC1` [D.1.84]: the concentration for half-maximal inhibition (IC50) fell in the range of 100 to 1000 nM.

Take `CC[C@@H]1C[C@H](NCCS(=O)(=O)N2CCC(F)(F)C2)C[C@@H]1c1nnc2cnc3[nH]ccc3n12` [D.1.62]: the IC50 was more than 1000 nM.

`C[C@@H]1CCN(C(=O)CC(F)(F)F)C[C@@H]1c1ncc2cnc3[nH]ccc3n12` [H.1.2]: the IC50 is less than 100 nM.

`O=C(N1CCC(F)(F)CC1)N1CCC[C@@H](c2cnc3cnc4[nH]ccc4n23)C1` (single isomer, unassigned) [AA.1.9, (3-(3H-imidazo[1,2-a]pyrrolo[2,3-e]pyrazin-8-yl)piperidin-1-yl)(4,4-difluoropiperidin-1-yl)methanone]: the half-maximal inhibitory concentration (IC50) was 100 to 1000 nM.

Compound `O=S(=O)(NC[C@H]1CC[C@@H](c2ncc3cnc4[nH]ccc4n23)C1)C1CC1` (single isomer, unassigned) [AA.1.61] returned an IC50 of 100 to 1000 nM.

Regarding `CC[C@@H]1C[C@H](NS(=O)(=O)C2CC2)C[C@@H]1c1nnc2cnc3[nH]cc(C#N)c3n12` [LL.1.3], the IC50 was more than 1000 nM.

Compound `CC[C@@H]1C[C@H](NS(=O)(=O)C2CC2)C[C@@H]1c1nc(Br)c2cnc3[nH]ccc3n12` [D.1.45] showed a concentration for half-maximal inhibition (IC50) of less than 100 nM.

Take `C[C@@H]1CCN(C(=O)N2CCC[C@H]2C)C[C@@H]1c1ncc2cnc3[nH]ccc3n12` [J.2.13]: the concentration for half-maximal inhibition (IC50) is less than 100 nM.

`CC[C@@H]1C[C@@H](OCc2ccc(C#N)cc2)C[C@@H]1c1nnc2cnc3[nH]ccc3n12` (single isomer, unassigned) [AA.1.101, 4-((3-ethyl-4-(6H-pyrrolo[2,3-e][1,2,4]triazolo[4,3-a]pyrazin-1-yl)cyclopentyloxy)methyl)benzonitrile] displayed an IC50 of less than 100 nM.

As for `C[C@@H]1CCN(C(=O)N2CCC[C@H]2C#N)C[C@@H]1c1ncc2cnc3[nH]ccc3n12` [J.2.3], the IC50 is less than 100 nM.

With `CC[C@@H]1C[C@H](NS(=O)(=O)C2(C)CC2)C[C@@H]1c1nnc2cnc3[nH]ccc3n12` [D.1.35], the IC50 is less than 100 nM.

`CC[C@@H]1C[C@H](NS(=O)(=O)CCC(F)(F)F)C[C@@H]1c1nnc2cnc3[nH]ccc3n12` [D.1.24] had an IC50 of 100 to 1000 nM.

`O=S(=O)(NC12CCC(c3nnc4cnc5[nH]ccc5n34)(CC1)CC2)N1CC(F)(F)C1` [D.1.30] yielded an IC50 of 100 to 1000 nM.

For the compound `CC[C@H]1C[C@H](Oc2ccc(C(F)(F)F)cn2)C[C@H]1c1nnc2cnc3[nH]ccc3n12` (single isomer, unassigned) [AA.1.96, 1-(2-ethyl-4-(5-(trifluoromethyl)pyridin-2-yloxy)cyclopentyl)-6H-pyrrolo[2,3-e][1,2,4]triazolo[4,3-a]pyrazine], the IC50 was more than 1000 nM.

The compound `C[C@@H]1CCN(C(=O)N2CCC[C@@H]2C(F)(F)F)C[C@@H]1c1ncc2cnc3[nH]ccc3n12` [J.2.15] displayed a half-maximal inhibitory concentration (IC50) of less than 100 nM.

In turn, `O=C(N1CCC[C@@H](c2ncc3cnc4[nH]ccc4n23)C1)N1CC(F)(F)C1` [J.3.1] gave an IC50 of less than 100 nM.

For `CC[C@H]1C[C@@H](OCc2ccc(OC)cc2)C[C@@H]1c1n[nH]c2cnc3[nH]ccc3c12` (single isomer, unassigned) [Example #30], the IC50 was in the range of 100 to 1000 nM.

Consider `CC[C@@H]1C[C@H](NS(=O)(=O)CCN2CCC(F)(F)CC2)C[C@@H]1c1nnc2cnc3[nH]ccc3n12` [D.1.60], for which the concentration for half-maximal inhibition (IC50) is more than 1000 nM.

`O=S(=O)(CCC(F)(F)F)N1CCN(c2ncc3cnc4[nH]ccc4n23)CC(F)C1` (centres unmarked) [D.1.65] yielded a 50% inhibitory concentration (IC50) of more than 1000 nM.

`N#Cc1ccnc(NC[C@H]2CC[C@@H](c3nnc4cnc5[nH]ccc5n34)C2)c1` [D.2.23] registered an IC50 of more than 1000 nM.

In turn, `O=S(=O)(CCC(F)(F)F)N1CCC[C@H]2[C@H]1CCN2c1ncc2cnc3[nH]ccc3n12` (racemic) [D.1.69] had a half-inhibitory concentration (IC50) of more than 1000 nM.

`CC[C@@H]1C[C@H](OCc2ccc(OC)cc2)C[C@H]1c1n[nH]c2cnc3[nH]ccc3c12` (single isomer, unassigned) [compound 31] gave an IC50 of 100 to 1000 nM.

Turning to `CC[C@@H]1C[C@H](NS(=O)(=O)C2CC2)C[C@]1(F)c1nnc2cnc3[nH]ccc3n12` (single isomer, unassigned) [AA.1.43, N-(cis-4-ethyl-3-fluoro-3-(6H-pyrrolo[2,3-e][1,2,4]triazolo[4,3-a]pyrazin-1-yl)cyclopentyl)cyclo-propanesulfonamide], the 50% inhibitory concentration (IC50) is less than 100 nM.

Take `C[C@@H]1CCN(C(=O)N2CC[C@@H](F)C2)C[C@@H]1c1ncc2cnc3[nH]ccc3n12` [J.2.7]: the IC50 is less than 100 nM.

In the case of `O=S(=O)(CCC(F)(F)F)NC[C@H]1CC[C@H](c2ncc3cnc4[nH]ccc4n23)C1` (single isomer, unassigned) [AA.1.63], the IC50 is more than 1000 nM.

In the case of `C[C@@H]1CCN(C(=O)CCc2cc(Cl)no2)C[C@@H]1c1ncc2cnc3[nH]ccc3n12` [H.1.10], the 50% inhibitory concentration (IC50) was less than 100 nM.

In turn, `CC[C@H]1C[C@@H](NS(=O)(=O)C2CC2)C[C@H]1c1cnc2cnc3[nH]ccc3n12` (single isomer, unassigned) [AA.1.25, N-(3-ethyl-4-(3H-imidazo[1,2-a]pyrrolo[2,3-e]pyrazin-8-yl)cyclopentyl)cyclopropanesulfonamide] yielded an IC50 of less than 100 nM.

The compound `CC[C@@H]1C[C@H](NS(=O)(=O)N2CC(F)(F)C2)C[C@@H]1c1nnc2cnc3[nH]ccc3n12` [D.1.11] registered a 50% inhibitory concentration (IC50) of 100 to 1000 nM.

The compound `C[C@H]1CCN(S(=O)(=O)CCC(F)(F)F)C[C@@H]1Nc1ncc2cnc3[nH]ccc3n12` (racemic) [D.1.66] returned an IC50 of more than 1000 nM.

The compound `O=S(=O)(NC12CCC(c3n[nH]c4cnc5[nH]ccc5c34)(CC1)CC2)C1CC1` [Example #29, N-(4-(3,6-dihydropyrazolo[4,3-d]pyrrolo[2,3-b]pyridin-1-yl)bicyclo[2.2.2]octan-1-yl)cyclopropanesulfonamide] registered a 50% inhibitory concentration (IC50) of less than 100 nM.

Take `C#CCCC(=O)N1CC[C@@H](C)[C@@H](c2ncc3cnc4[nH]ccc4n23)C1` [H.1.6]: the IC50 is less than 100 nM.

With `CC[C@@H]1C[C@@H](Oc2ccc(C#N)cc2)C[C@@H]1c1nnc2cnc3[nH]ccc3n12` [Example #4, 4-((1R,3R,4S)-3-ethyl-4-(6H-pyrrolo[2,3-e][1,2,4]triazolo[4,3-a]pyrazin-1-yl)cyclopentyloxy)benzonitrile], the half-maximal inhibitory concentration (IC50) is less than 100 nM.

As to `CC[C@@H]1C[C@H](Nc2ccc(C#N)cn2)C[C@@H]1c1nnc2cnc3[nH]ccc3n12` [D.2.19], the IC50 lay in the range of 100 to 1000 nM.

Consider `CC[C@@H]1C[C@H](NS(=O)(=O)CCn2ccnn2)C[C@@H]1c1nnc2cnc3[nH]ccc3n12` [D.1.58], for which the IC50 is 100 to 1000 nM.

For the compound `C[C@H]1CCN(C(=O)N2CC(C#N)C2)C[C@H]1c1ncc2cnc3[nH]ccc3n12` (racemic) [J.1.1], the IC50 was less than 100 nM.

`CC[C@H]1C[C@H](OCc2cccc(C#N)c2)C[C@H]1c1nnc2cnc3[nH]ccc3n12` (single isomer, unassigned) [AA.1.100, 3-((3-ethyl-4-(6H-pyrrolo[2,3-e][1,2,4]triazolo[4,3-a]pyrazin-1-yl)cyclopentyloxy)methyl)benzonitrile] had an IC50 of more than 1000 nM.

Compound `CC[C@@H]1C[C@@H](O)C[C@@H]1c1nnc2cnc3[nH]ccc3n12` (single isomer, unassigned) [AA.1.106, 3-ethyl-4-(6H-pyrrolo[2,3-e][1,2,4]triazolo[4,3-a]pyrazin-1-yl)cyclopentanol] showed an IC50 of more than 1000 nM.

Compound `CC[C@@H]1C[C@@H](Oc2ccc(C#N)cn2)C[C@H]1c1nnc2cnc3[nH]ccc3n12` (racemic) [D.2.10] showed a 50% inhibitory concentration (IC50) of more than 1000 nM.

Consider `CC[C@@H]1C[C@H](Nc2cnc(C#N)cn2)C[C@@H]1c1nnc2cnc3[nH]ccc3n12` [D.2.11], for which the IC50 was 100 to 1000 nM.

Compound `CC[C@@H]1C[C@@H](OCC2CC2)C[C@@H]1c1nnc2cnc3[nH]ccc3n12` (single isomer, unassigned) [AA.1.90, 1-(4-(cyclopropylmethoxy)-2-ethylcyclopentyl)-6H-pyrrolo[2,3-e][1,2,4]triazolo[4,3-a]pyrazine] returned an IC50 of 100 to 1000 nM.

The compound `C[C@@H]1C[C@H](Nc2cnc(C#N)cn2)C[C@@H]1c1ncc2cnc3[nH]ccc3n12` [D.2.21] returned an IC50 of 100 to 1000 nM.

For the compound `C[C@@H]1CCN(C(=O)C2CCS(=O)(=O)C2)C[C@@H]1c1ncc2cnc3[nH]ccc3n12` (mixture of isomers) [H.1.29], the concentration for half-maximal inhibition (IC50) is less than 100 nM.
